Holding throughout (assay type): in vivo
Experiment [1] relates to C57B1/6 mice. Put plainly: Bleomycin-induced lung fibrosis model in mice. The conditions noted are these: for total lung collagen: chronic setting (14 day bleomycin model). The text has this: Female C57B1/6 mice (Harlan, 25-30 g) are housed 4 per cage, given free access to food and water and allowed to acclimate for at least 7 days prior to test initiation. After the habituation phase, mice are lightly anesthetized with isoflurane (5% in 100% O2) and administered with bleomycin sulfate (0.01-5 U/kg, Henry Schein) via intratracheal instillation (Cuzzocrea S et al. Am J Physiol Lung Cell Mol Physiol. 2007 May; 292(5):L1095-104. Epub 2007 Jan. 12.). Mice are returned to their cages and monitored daily for the duration of the experiment. Test compound or vehicle is delivered po, ip or sc daily. The route and frequency of dosing is based on previously determined pharmacokinetic properties. All animals are sacrificed using inhaled isoflurane 3, 7, 14, 21 or 28 days after bleomycin instillation. Following sacrifice, mice are intubated with a 20 gauge angiocatheter attached to a 1 ml syringe. Lungs are lavaged with saline to obtain bronchoalveolar lavage fluid (BALF) and then removed and fixed in 10% neutral buffered formalin for subsequent histopathological analysis. BALF is centrifuged for 10 min at 800×g to pellet the cells and the cell supernatant removed and frozen at −80° C. for subsequent protein analysis using the DC protein assay kit (Biorad, Hercules, Calif.) and soluble collagen analysis using Sircol (Biocolor Ltd, UK). BALF is analyzed for concentrations of inflammatory, pro-fibrotic and tissue injury biomarkers including transforming growth factor β1, hyaluronic acid, tissue inhibitor of metalloproteinase-1, matrix matelloproteinase-7, connective tissue growth factor and lactate dehydrogenase activity, using commercially available ELISA. The cell pellet is re-suspended in PBS. Total cell counts are then obtained using a Hemavet hematology system (Drew Scientific, Wayne, Pa.) and differential cells counts are determined using Shandon cytospin (Thermo Scientific, Waltham, Mass.). Lung tissue is stained using hematoxylin and eosin (H&E) and trichrome and lung fibrosis is determined by semiquantitative histopathological scoring (Ashcroft T. et al. J. Clin. Path. 1988; 41; 4, 467-470) using light microscopy (10× magnification) and quantitative, computer-assisted densitometry of collagen in lung tissue sections using light microscopy. The data are plotted using Graphpad prism and statistical differences between groups determined.

Experiment [2] deals with C57BL/6 mice. Put plainly: Mouse carbon tetrachloride (CCl4)-induced liver fibrosis model. As to conditions: compared to the untreated group. The procedure: Female C57BL/6 mice (Harlan, 20-25 g) housed 4/cage are given free access to food and water and allowed to acclimate for at least 7 days prior to test initiation. After the habituation phase, mice receive CCl4 (1.0 ml/kg body weight) diluted in corn oil vehicle (100 μL volume) via i.p. injection twice a week for 8 weeks. (Higazi, A. A. et al., Clin Exp Immunol. 2008 April; 152(1):163-73. Epub 2008 Feb. 14.). Control mice receive an equivalent volume of corn oil vehicle only. Test compound or vehicle is delivered po, ip or sc daily. […] Liver tissue homogenates are analyzed for collagen levels using Sircol (Biocolor Ltd, UK). Fixed Liver tissue is stained using hematoxylin and eosin (H&E) and trichrome and liver fibrosis is determined by quantitative, computer-assisted densitometry of collagen in liver tissue sections using light microscopy. Plasma and liver tissue lysates are also analyzed for concentrations of inflammatory, pro-fibrotic and tissue injury biomarkers including transforming growth factor β1, hyaluronic acid, tissue inhibitor of metalloproteinase-1, matrix matelloproteinase-7, connective tissue growth factor and lactate dehydrogenase activity, using commercially available ELISA. The resulting data are plotted using Graphpad prism and statistical differences between groups determined.

Experiment [3] deals with BALB/c mice. Description: Mouse dermal vascular leak assay. As to conditions: 30 mg/kg oral gavage, three hours before dye; intradermal LPA 30 μg. The protocol:
Female BALB/c mice (Harlan) weighing 20-25 grams were given free access to standard mouse chow and water and were allowed to acclimate for two weeks prior to study initiation. Compound 1 was prepared in water vehicle at a concentration of 3 mg/ml and delivered by oral gavage at a volume of 10 ml/kg to yield a dose of 30 mg/kg. Three hours following dose, mice were placed into a restraining device and given Evan's blue dye intravenously by tail vein injection (0.2 ml of a 0.5% solution). Mice were then anesthetized using 3% isoflurane anaesthesia to allow for intradermal injection of LPA (30 μg in 20 μl 0.1% fatty acid free BSA). Thirty minutes after LPA injection mice were sacrificed by CO2 inhalation and the skin removed from the challenge site and placed into 2 ml formamide for overnight extraction of Evan's blue dye.
Following extraction, a 150 μl aliquot of formamide for each tissue sample was placed into a 96 well plate and read at 610 nm using a photospectometer. The resulting data (OD units) were plotted using GraphPad Prizm. In this experiment compound 1 reduced LPA-induced Evan's blue dye leak into the skin.

Turning to `Cc1noc(-c2ccc(-c3ccc(C4(C(=O)O)CC4)cc3)cc2)c1NC(=O)O[C@H](C)c1ccccc1` [Compound 1, 1-{4′-[3-Methyl-4-((R)-1-phenyl-ethoxycarbonylamino)-isoxazol-5-yl]-biphenyl-4-yl}-cyclopropanecarboxylic acid], in experiment [1] (7-day bleomycin model), the “BALF MMP-7” value is “reduced”, the “BALF TGFβ1” value is reported as “reduced”, the BALF collagen entry is recorded as “reduced” and the BALF hyaluronan entry is recorded as “reduced”. Moreover, in experiment [1] (7-day bleomycin model), the “BALF inflammatory cell influx” value is listed as “reduced” and the BALF protein entry is reported as “reduced”. For the same compound, in experiment [1] (acute setting (3 day)), the “collagen concentration in BALF” value is recorded as “significantly reduced” and the “total protein concentration in BALF” value is reported as “significantly reduced”. Besides, the total lung collagen entry in experiment [1] (dosed prophylactically (day 0-day 14)) was “decreased”. In addition, in experiment [1] (dosed therapeutically (day 3-day 14)), the total lung collagen result is “decreased”. In experiment [2], the “collagen deposition in the liver” value is recorded as “significantly reduced” and the liver weight increase result is listed as “significantly reduced”. Besides, the “LPA-induced Evan's blue dye leak into the skin” value in experiment [3] is “reduced”.

Values taken from patent US8273780B2, “Polycyclic antagonists of lysophosphatidic acid receptors” (Amira Pharmaceuticals, Inc., priority 2009, dated 2012).
